# Measurements as given in patent publication US20250243196A1, “CITRON KINASE INHIBITORS” (The Cleveland Clinic Foundation, priority 2021, published 2025).
# Assays:
# Experiment in all cases: KinaseProfiler panel
# Assay type in all cases: biochemical
# Conditions in all cases: activity remaining
# MINK(h) = MINK(h) (Homo sapiens (Human), UniProt Q8N4C8); parameters: dose or concentration left out as unconfirmed
# ICK(h) = ICK(h) (Homo sapiens (Human), UniProt Q9UPZ9)
# CK1γ1(h) = CK1γ1(h) (Homo sapiens (Human), UniProt Q9HCP0); parameters: dose or concentration left out as unconfirmed
# PKCθ(h) = PKCθ(h) (Homo sapiens (Human), UniProt Q04759); parameters: dose or concentration left out as unconfirmed
# MKK6(h) = MKK6(h) (Homo sapiens (Human), UniProt P52564); parameters: dose or concentration left out as unconfirmed
# CaMKIIδ(h) = CaMKIIδ(h) (Homo sapiens (Human), UniProt Q13557); parameters: dose or concentration left out as unconfirmed
# CDK3/cyclinE(h) = CDK3/cyclinE(h) (Homo sapiens (Human), UniProt Q00526); parameters: dose or concentration left out as unconfirmed
# CaMKIIα(h) = CaMKIIα(h) (Homo sapiens (Human), UniProt Q9UQM7)
# TAO2(h) = TAO2(h) (Homo sapiens (Human), UniProt Q9UL54)
# CaMKIV(h) = CaMKIV(h) (Homo sapiens (Human), UniProt Q16566); parameters: dose or concentration left out as unconfirmed
# CDK18/cyclinY(h) = CDK18/cyclinY(h) (Homo sapiens (Human), UniProt Q07002); parameters: dose or concentration left out as unconfirmed
# PRP4(h) = PRP4(h) (Homo sapiens (Human), UniProt Q13523); parameters: dose or concentration left out as unconfirmed
# IRE1(h) = IRE1(h) (Homo sapiens (Human), UniProt O75460); parameters: dose or concentration left out as unconfirmed
# Rsk1(h) = Rsk1(h) (Homo sapiens (Human), UniProt Q15418); parameters: dose or concentration left out as unconfirmed
# PKG1β(h) = PKG1β(h) (Homo sapiens (Human), UniProt Q13976); parameters: dose or concentration left out as unconfirmed
# CDK1/cyclinB(h) = CDK1/cyclinB(h) (Homo sapiens (Human), UniProt P06493); parameters: dose or concentration left out as unconfirmed
# CaMKIβ(h) = CaMKIβ(h) (Homo sapiens (Human), UniProt Q6P2M8); parameters: dose or concentration left out as unconfirmed
# EGFR(h) = EGFR(h) (Homo sapiens (Human), UniProt P00533); parameters: dose or concentration left out as unconfirmed
# GCK(h) = GCK(h) (Homo sapiens (Human), UniProt Q12851); parameters: dose or concentration left out as unconfirmed
# SAPK4(h) = SAPK4(h) (Homo sapiens (Human), UniProt O15264); parameters: dose or concentration left out as unconfirmed
# Rse(h) = Rse(h) (Homo sapiens (Human), UniProt Q06418); parameters: dose or concentration left out as unconfirmed
# SAPK2b(h) = SAPK2b(h) (Homo sapiens (Human), UniProt Q15759); parameters: dose or concentration left out as unconfirmed
# SIK3(h) = SIK3(h) (Homo sapiens (Human), UniProt Q9Y2K2); parameters: dose or concentration left out as unconfirmed
# EphB3(h) = EphB3(h) (Homo sapiens (Human), UniProt P54753); parameters: dose or concentration left out as unconfirmed
# SRMS(h) = SRMS(h) (Homo sapiens (Human), UniProt Q9H3Y6); parameters: dose or concentration left out as unconfirmed
# Ret(h) = Ret(h) (Homo sapiens (Human), UniProt P07949); parameters: dose or concentration left out as unconfirmed
# STK32C(h) = STK32C(h) (Homo sapiens (Human), UniProt Q86UX6)
# PI3KC2g(h) = PI3KC2g(h) (Homo sapiens (Human), UniProt O75747)
# ASK1(h) = ASK1(h) (Homo sapiens (Human), UniProt Q99683); parameters: dose or concentration left out as unconfirmed
# PI3 Kinase (p120g)(h) = PI3 Kinase (p120g)(h) (Homo sapiens (Human), UniProt P48736)
# CDK2/cyclinE(h) = CDK2/cyclinE(h) (Homo sapiens (Human), UniProt P24941); parameters: dose or concentration left out as unconfirmed
# SBK1(h) = SBK1(h) (Homo sapiens (Human), UniProt Q52WX2); parameters: dose or concentration left out as unconfirmed
# ROCK-II(h) = ROCK-II(h) (Homo sapiens (Human), UniProt O75116); parameters: dose or concentration left out as unconfirmed
# Chain of ROCK-II(h) (O75116 whole entry): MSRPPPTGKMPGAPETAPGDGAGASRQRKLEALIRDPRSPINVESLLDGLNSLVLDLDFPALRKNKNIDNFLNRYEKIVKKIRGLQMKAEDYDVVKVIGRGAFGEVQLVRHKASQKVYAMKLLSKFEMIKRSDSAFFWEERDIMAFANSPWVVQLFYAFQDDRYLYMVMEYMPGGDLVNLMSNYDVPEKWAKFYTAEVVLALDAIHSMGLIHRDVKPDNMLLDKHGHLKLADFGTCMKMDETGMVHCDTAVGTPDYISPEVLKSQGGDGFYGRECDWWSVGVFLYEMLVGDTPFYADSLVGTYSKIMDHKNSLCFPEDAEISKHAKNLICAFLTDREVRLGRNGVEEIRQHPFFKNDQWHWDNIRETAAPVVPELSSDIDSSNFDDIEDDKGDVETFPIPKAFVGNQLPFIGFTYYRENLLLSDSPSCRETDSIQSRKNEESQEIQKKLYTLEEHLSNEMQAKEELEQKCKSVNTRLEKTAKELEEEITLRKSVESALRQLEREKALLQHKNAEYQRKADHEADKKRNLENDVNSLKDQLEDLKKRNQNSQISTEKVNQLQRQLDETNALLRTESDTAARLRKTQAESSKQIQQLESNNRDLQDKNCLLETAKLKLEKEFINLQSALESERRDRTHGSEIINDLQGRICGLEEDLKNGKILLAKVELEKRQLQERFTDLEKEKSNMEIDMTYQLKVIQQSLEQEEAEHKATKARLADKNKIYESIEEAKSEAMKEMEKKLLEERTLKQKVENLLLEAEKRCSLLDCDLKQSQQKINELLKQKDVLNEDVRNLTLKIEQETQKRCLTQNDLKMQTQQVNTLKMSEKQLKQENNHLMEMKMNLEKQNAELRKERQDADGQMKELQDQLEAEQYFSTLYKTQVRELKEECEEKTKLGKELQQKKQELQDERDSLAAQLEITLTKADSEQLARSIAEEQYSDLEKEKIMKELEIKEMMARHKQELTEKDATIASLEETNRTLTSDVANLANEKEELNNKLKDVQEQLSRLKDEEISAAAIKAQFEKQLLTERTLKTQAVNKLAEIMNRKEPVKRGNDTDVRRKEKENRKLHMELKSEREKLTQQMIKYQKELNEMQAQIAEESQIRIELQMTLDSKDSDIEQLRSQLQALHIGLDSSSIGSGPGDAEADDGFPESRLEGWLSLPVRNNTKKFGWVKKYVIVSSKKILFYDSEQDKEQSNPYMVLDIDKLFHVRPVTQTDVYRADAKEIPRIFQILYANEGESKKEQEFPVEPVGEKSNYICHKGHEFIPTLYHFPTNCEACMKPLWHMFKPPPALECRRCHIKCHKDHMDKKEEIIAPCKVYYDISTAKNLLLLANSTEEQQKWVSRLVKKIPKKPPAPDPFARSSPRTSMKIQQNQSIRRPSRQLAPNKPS
# Chain of ICK(h) (Q9UPZ9 whole entry): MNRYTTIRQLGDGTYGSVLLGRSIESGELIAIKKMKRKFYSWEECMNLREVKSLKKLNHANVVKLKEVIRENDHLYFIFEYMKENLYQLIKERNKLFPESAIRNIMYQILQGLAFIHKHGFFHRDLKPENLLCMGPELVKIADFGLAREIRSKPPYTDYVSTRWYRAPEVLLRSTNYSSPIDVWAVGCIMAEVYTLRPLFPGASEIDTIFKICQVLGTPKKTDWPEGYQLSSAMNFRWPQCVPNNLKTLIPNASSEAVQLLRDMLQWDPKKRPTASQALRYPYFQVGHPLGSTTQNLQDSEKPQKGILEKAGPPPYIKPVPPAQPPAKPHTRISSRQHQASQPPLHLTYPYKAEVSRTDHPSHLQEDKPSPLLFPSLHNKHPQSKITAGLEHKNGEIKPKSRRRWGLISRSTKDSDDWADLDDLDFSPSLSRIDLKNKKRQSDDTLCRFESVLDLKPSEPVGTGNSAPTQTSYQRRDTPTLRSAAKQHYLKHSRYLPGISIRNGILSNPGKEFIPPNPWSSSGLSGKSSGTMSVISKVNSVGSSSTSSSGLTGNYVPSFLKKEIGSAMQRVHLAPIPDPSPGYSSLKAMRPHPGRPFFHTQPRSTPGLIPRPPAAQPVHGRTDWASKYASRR
# Chain of SBK1(h) (Q52WX2 whole entry): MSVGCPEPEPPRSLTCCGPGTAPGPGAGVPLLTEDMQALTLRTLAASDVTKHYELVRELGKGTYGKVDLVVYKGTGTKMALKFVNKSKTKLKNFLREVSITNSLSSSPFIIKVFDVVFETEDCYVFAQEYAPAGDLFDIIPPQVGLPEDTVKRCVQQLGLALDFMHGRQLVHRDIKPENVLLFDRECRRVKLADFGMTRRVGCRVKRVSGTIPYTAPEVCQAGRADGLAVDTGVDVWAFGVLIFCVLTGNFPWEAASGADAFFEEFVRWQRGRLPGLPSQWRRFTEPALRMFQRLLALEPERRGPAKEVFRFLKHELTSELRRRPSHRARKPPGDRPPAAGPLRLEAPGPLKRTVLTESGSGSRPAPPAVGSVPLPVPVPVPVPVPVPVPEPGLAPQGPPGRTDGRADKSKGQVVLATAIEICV
# Chain of EphB3(h) (P54753 34-998): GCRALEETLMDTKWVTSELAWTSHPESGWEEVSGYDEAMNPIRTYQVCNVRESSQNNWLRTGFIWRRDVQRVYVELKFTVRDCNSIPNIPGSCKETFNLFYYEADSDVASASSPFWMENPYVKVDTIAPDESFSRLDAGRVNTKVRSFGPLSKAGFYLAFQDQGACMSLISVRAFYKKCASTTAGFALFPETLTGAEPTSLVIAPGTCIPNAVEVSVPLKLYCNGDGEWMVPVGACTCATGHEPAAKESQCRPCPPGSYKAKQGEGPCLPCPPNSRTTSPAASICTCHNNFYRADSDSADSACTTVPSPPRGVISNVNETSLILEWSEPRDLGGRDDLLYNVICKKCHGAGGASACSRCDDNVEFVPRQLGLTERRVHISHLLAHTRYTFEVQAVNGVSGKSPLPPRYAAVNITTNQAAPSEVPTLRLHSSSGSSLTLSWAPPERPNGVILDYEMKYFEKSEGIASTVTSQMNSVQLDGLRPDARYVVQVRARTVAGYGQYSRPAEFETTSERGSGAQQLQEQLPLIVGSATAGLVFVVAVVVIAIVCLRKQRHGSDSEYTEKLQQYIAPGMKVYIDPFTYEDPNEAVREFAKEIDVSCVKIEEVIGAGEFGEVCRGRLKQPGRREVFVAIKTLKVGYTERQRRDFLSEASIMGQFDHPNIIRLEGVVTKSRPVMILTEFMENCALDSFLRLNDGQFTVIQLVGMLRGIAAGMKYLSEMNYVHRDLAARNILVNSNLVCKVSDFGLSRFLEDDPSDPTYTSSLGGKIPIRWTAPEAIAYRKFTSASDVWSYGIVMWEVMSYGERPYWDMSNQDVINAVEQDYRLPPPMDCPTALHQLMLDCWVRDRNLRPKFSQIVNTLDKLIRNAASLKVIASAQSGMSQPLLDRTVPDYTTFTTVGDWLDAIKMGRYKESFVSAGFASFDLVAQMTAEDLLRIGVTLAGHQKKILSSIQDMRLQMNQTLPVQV
# Chain of MKK6(h) (P52564 whole entry): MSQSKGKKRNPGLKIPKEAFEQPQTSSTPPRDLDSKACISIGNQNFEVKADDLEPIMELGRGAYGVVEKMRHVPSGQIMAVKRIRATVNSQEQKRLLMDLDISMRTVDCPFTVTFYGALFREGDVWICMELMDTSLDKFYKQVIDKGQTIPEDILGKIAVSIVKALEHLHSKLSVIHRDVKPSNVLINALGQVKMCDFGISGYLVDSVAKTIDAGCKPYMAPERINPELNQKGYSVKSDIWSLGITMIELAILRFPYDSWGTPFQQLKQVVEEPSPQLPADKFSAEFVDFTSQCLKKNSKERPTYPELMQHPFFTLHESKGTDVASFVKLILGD
# Chain of GCK(h) (Q12851 whole entry): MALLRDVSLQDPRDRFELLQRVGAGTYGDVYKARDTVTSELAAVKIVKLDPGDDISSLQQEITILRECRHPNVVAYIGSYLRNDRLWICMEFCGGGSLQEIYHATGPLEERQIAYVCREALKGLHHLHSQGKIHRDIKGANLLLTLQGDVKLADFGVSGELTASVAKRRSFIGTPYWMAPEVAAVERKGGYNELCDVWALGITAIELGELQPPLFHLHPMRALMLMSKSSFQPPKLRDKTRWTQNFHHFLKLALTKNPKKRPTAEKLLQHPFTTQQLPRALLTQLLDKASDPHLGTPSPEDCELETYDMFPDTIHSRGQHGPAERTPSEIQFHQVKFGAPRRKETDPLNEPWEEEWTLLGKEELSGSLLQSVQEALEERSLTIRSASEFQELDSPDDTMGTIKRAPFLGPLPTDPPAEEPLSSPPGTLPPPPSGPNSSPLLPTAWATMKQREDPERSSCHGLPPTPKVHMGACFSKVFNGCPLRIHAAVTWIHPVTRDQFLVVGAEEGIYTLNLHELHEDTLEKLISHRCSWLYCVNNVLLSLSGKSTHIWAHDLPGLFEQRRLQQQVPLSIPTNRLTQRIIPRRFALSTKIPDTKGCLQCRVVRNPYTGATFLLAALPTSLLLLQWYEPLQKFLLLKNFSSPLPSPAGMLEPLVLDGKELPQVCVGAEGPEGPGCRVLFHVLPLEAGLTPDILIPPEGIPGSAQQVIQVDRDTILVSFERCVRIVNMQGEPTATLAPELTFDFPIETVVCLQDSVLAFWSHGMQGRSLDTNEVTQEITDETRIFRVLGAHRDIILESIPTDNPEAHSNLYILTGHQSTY
# Chain of CaMKIIδ(h) (Q13557 whole entry): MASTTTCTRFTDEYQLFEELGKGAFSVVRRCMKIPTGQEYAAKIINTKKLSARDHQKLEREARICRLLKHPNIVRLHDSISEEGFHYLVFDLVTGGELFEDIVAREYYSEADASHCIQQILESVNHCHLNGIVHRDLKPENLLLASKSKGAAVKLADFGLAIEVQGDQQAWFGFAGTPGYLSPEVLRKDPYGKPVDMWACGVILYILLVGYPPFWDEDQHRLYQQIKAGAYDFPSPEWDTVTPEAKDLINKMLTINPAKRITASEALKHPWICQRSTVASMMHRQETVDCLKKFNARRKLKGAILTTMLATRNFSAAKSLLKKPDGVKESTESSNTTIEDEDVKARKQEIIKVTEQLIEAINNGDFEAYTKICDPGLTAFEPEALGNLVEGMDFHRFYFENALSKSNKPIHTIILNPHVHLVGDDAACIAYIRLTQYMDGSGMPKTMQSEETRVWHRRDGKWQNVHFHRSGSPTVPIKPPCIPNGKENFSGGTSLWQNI
smiles,measurement,setting,value
"Cc1cc2c(-c3ccc(NC(=O)[C@H](N)CC(C)(C)C)cc3C)ccnc2[nH]1 [Compound F-90, (2R)-2-Amino-4,4-dimethyl-N-[3-methyl-4-(2-methyl-1H-pyrrolo[2,3-b]pyridin-4-yl)phenyl]pentanamide]",% Activity,MINK(h),89%
same,% Activity,ICK(h),99%
same,% Activity,CK1γ1(h),101%
same,% Activity,PKCθ(h),103%
same,% Activity,MKK6(h),101%
same,% Activity,CaMKIIδ(h),96%
same,% Activity,CDK3/cyclinE(h),102%
same,% Activity,CaMKIIα(h),88%
same,% Activity,TAO2(h),90%
same,% Activity,CaMKIV(h),99%
same,% Activity,CDK18/cyclinY(h),94%
same,% Activity,PRP4(h),100%
same,% Activity,IRE1(h),99%
same,% Activity,Rsk1(h),99%
same,% Activity,PKG1β(h),92%
same,% Activity,CDK1/cyclinB(h),94%
same,% Activity,CaMKIβ(h),85%
same,% Activity,EGFR(h),107%
same,% Activity,GCK(h),118%
same,% Activity,SAPK4(h),94%
same,% Activity,Rse(h),129%
same,% Activity,SAPK2b(h),90%
same,% Activity,SIK3(h),105%
same,% Activity,EphB3(h),79%
same,% Activity,SRMS(h),86%
same,% Activity,Ret(h),97%
same,% Activity,STK32C(h),85%
same,% Activity,PI3KC2g(h),103%
same,% Activity,ASK1(h),100%
same,% Activity,PI3 Kinase (p120g)(h),105%
same,% Activity,CDK2/cyclinE(h),92%
same,% Activity,SBK1(h),97%
same,% Activity,ROCK-II(h),96%
